The text below walks through data of patent US20250188110A1, “SPECIFIC SMALL MOLECULE INHIBITORS THAT BLOCK KMT9 METHYLTRANSFERASE ACTIVITY AND FUNCTION” (ALBERT-LUDWIGS-UNIVERSITÄT FREIBURG, priority 2021, published 2025).

Bounds are passed on as bounds.

The target in experiment [1] is T1, KMT9 (Homo sapiens, UniProt Q9Y5N5).
T1 sequence (Q9Y5N5 1-214): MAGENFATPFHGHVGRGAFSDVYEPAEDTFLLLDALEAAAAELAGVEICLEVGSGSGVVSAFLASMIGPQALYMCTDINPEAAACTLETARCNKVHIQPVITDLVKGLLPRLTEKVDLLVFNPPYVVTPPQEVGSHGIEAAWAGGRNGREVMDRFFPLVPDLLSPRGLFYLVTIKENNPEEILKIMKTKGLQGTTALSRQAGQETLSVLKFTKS
T1 sequence (Q9UI30 1-120 isoform Q9UI30-2 partner): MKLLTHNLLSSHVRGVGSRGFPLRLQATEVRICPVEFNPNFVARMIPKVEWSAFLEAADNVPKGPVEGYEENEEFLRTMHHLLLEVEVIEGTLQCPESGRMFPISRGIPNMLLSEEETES
As to the kind of experiment: Microscale thermophoresis (MST) KMT9 binding. The following applies: microscale thermophoresis, His-tag labelled KMT9 (20 nM); read-out: MST. Put shortly:
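Kd from microscale thermophoresis: compound series against 20 nM His-KMT9 labelled via RED-Tris-NTA, buffer 25 mM HEPES (pH 7.5)/100 mM NaCl/1 mM DTT/0.05% Tween, 40% MST power, 100% LED. Reported as classes: A ≤10 nM, B >10–100 nM, C >100–1000 nM, D >1000 nM.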

Experiment [2] addresses T1, KMT9. As to the kind of experiment: KMT9 thermal shift assay (SyproOrange). The following applies: ΔTm; 500 µM compound, 2 μM KMT9, 5X SO; read-out: Thermal shift. The class given is binding. Put shortly:
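ΔTm versus DMSO-only control is reported in bins (>20 K, 15–20 K, 10–15 K, ≤10 K), using Tm from Boltzmann sigmoidal fits of SyproOrange melt curves. KMT9 with compound in pH 8.5 BTP buffer containing MgCl2 and DTT was preincubated at 25° C, then ramped 1° C per 15 s up to 95° C.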

Experiment [3] addresses T1, KMT9. Nature of the experiment: KMT9 methyltransferase inhibition assay, 3H-SAM scintillation (entries 1-154). Format: biochemical. As to conditions: entries 1-154: 3H-SAM assay, 25 nM KMT9, 5 μM ETF1. The method, boiled down:
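Tritium transfer from SAM (0.3 μM 3H-SAM, 0.7 μM unlabelled, final) to 5 μM ETF1 fragment by 25 nM KMT9 was measured after 2 h at 30° C, pH 8.5. Precipitated peptide was collected on filters and scintillation counted; IC50 came from a four-parameter fit of inhibition normalised to controls.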

As a reminder, the IC50 is the concentration that inhibits the measured activity by half.

As for `C=Cc1cn([C@@H]2C[C@H](CN3CC(CNCCc4ccc(F)cc4)C3)[C@@H](O)[C@H]2O)c2ncnc(N)c12` [485 (359), (1R,2S,3R,5R)-3-(4-Amino-5-vinyl-7H-pyrrolo[2,3-d]pyrimidin-7-yl)-5-((3-(((4-fluorophenethyl)amino)methyl)azetidin-1-yl)methyl) cyclopentane-1,2-diol], at KMT9 [1], the Kd lay within 0.01 to 0.1 µM. Further, the ΔTm at 500 µM on KMT9 [2] lay within 15 to 20 °C. This compound displayed an IC50 at KMT9 [3] of 1 to 10 µM.

Consider `Nc1ncnc2c1c(-c1nccs1)cn2[C@@H]1C[C@H](C2CCNCC2)[C@@H](O)[C@H]1O` [487 (360)], for which the Kd at KMT9 [1] lay within 0.01 to 0.1 µM. Further, at KMT9 [2], the ΔTm at 500 µM lay in the range of 15 to 20 °C. The compound also showed a half-inhibitory concentration (IC50) at KMT9 [3] of 1 to 10 µM.

Regarding `Nc1ncnc2c1ncn2[C@@H]1O[C@H](C(=O)NCCCNC(=O)Nc2ccccc2)[C@@H](O)[C@H]1O` [684 (202), (2S,3S,4R,5R)-5-(6-amino-9H-purin-9-yl)-3,4-dihydroxy-N-(3-(3-phenylureido)propyl) tetrahydrofuran-2-carboxamide], the Kd at KMT9 [1] is more than 1 µM. Moreover, the ΔTm at 500 µM on KMT9 [2] was not above 10 °C. This compound displayed a concentration for half-maximal inhibition (IC50) against KMT9 [3] of more than 10 µM.

In the case of `CNc1ncnc2c1ccn2[C@@H]1C[C@H](COCC(=O)NCCc2ccccc2)[C@@H](O)[C@H]1O` [689 (298), 2-(((1R,2R,3S,4R)-2,3-Dihydroxy-4-(4-(methylamino)-7H-pyrrolo[2,3-d]pyrimidin-7-yl)cyclopentyl)methoxy)-N-phenethylacetamide], on KMT9 [1], the Kd was more than 1 µM. At KMT9 [2], the ΔTm at 500 µM was not above 10 °C. The compound also displayed an IC50 against KMT9 [3] of more than 10 µM.

With `Nc1ncnc2c1c(-c1nccs1)cn2[C@@H]1C[C@H](CC2CNC2)[C@@H](O)[C@H]1O` [Compound 486, (1R,2S,3R,5S)-3-(4-amino-5-(thiazol-2-yl)-7H-pyrrolo[2,3-d]pyrimidin-7-yl)-5-(azetidin-3-ylmethyl) cyclopentane-1,2-diol], the Kd on KMT9 [1] was more than 1 µM. On KMT9 [2], the ΔTm at 500 µM was not above 10 °C. Moreover, the concentration for half-maximal inhibition (IC50) against KMT9 [3] is more than 10 µM.

As for `Nc1ncnc2c1c(-c1nc(Cc3ccccc3)cs1)cn2[C@@H]1C[C@H](C2CCNCC2)[C@@H](O)[C@H]1O` [Compound 488, (1R,2S,3R,5R)-3-(4-amino-5-(4-benzylthiazol-2-yl)-7H-pyrrolo[2,3-d]pyrimidin-7-yl)-5-(piperidin-4-yl)cyclopentane-1,2-diol], the Kd at KMT9 [1] fell in the range of 0.01 to 0.1 µM. The ΔTm at 500 µM on KMT9 [2] was 10 to 15 °C. On KMT9 [3], this compound showed an IC50 of 1 to 10 µM.

With `Nc1ncnc2c1c(-c1ccn(Cc3ccccc3)n1)cn2[C@@H]1C[C@H](C2CCNCC2)[C@@H](O)[C@H]1O` [Compound 489, (1R,2S,3R,5R)-3-(4-amino-5-(1-benzyl-1H-pyrazol-3-yl)-7H-pyrrolo[2,3-d]pyrimidin-7-yl)-5-(piperidin-4-yl)cyclopentane-1,2-diol], the Kd on KMT9 [1] was in the range of 0.01 to 0.1 µM. Further, the ΔTm at 500 µM on KMT9 [2] is 15 to 20 °C. The compound further displayed an IC50 against KMT9 [3] of 1 to 10 µM.

Take `O[C@@H]1[C@H](O)[C@@H](C2CCNCC2)C[C@H]1n1cc2c3c(ncnc31)NCCC2` [Compound 490, (1S,2R,3R,5R)-3-(piperidin-4-yl)-5-(6,7,8,9-tetrahydro-2H-2,3,5,6-tetraazabenzo[cd]azulen-2-yl)cyclopentane-1,2-diol]: the Kd on KMT9 [1] is 0.1 to 1 µM. For the same compound, the ΔTm at 500 µM on KMT9 [2] was in the range of 10 to 15 °C. The IC50 at KMT9 [3] fell in the range of 1 to 10 µM.

For `Nc1ncnc2c1c(-c1nccs1)cn2[C@@H]1C[C@H](CN(CCCNCCc2ccc(F)cc2)c2cn[nH]c2)[C@@H](O)[C@H]1O` [Compound 599, (1R,2S,3R,5R)-3-[4-Amino-5-(1,3-thiazol-2-yl)pyrrolo[2,3-d]pyrimidin-7-yl]-5-{[(3-{[2-(4-fluorophenyl)ethyl]amino}propyl)(1H-pyrazol-4-yl)amino]methyl}cyclopentane-1,2-diol], the Kd on KMT9 [1] was not above 0.01 µM. Also, the ΔTm at 500 µM on KMT9 [2] lay in the range of 15 to 20 °C. The same compound had a 50% inhibitory concentration (IC50) on KMT9 [3] of less than 0.1 µM.

As to `CS(=O)(=O)n1ccc(-c2cn([C@@H]3C[C@H](CNCCCNCCc4ccccc4)[C@@H](O)[C@H]3O)c3ncnc(N)c23)n1` [Compound 600, (1R,2S,3R,5R)-3-(4-Amino-5-(1-(methylsulfonyl)-1H-pyrazol-3-yl)-7H-pyrrolo[2,3-d]pyrimidin-7-yl)-5-(((3-(phenethylamino)propyl)amino)methyl)cyclopentane-1,2-diol], on KMT9 [1], the Kd was not above 0.01 µM. For the same compound, the ΔTm at 500 µM at KMT9 [2] was 15 to 20 °C. Besides, the 50% inhibitory concentration (IC50) at KMT9 [3] was less than 0.1 µM.

Regarding `Nc1ncnc2c1c(-c1ncns1)cn2[C@@H]1C[C@H](CNCCCNCCc2ccccc2)[C@@H](O)[C@H]1O` [Compound 601, (1R,2S,3R,5R)-3-(4-amino-5-(1,2,4-thiadiazol-5-yl)-7H-pyrrolo[2,3-d]pyrimidin-7-yl)-5-(((3-(phenethylamino)propyl)amino)methyl)cyclopentane-1,2-diol], the Kd on KMT9 [1] fell in the range of 0.1 to 1 µM. Also, the ΔTm at 500 µM at KMT9 [2] fell in the range of 10 to 15 °C. On KMT9 [3], this compound displayed a half-maximal inhibitory concentration (IC50) of 1 to 10 µM.

Regarding `Nc1ncnc2c1c(-c1nccs1)cn2[C@@H]1C[C@H](CNCCCNCCc2ccc(F)cc2)[C@@H](O)[C@H]1O` [Compound 602, (1R,2S,3R,5R)-3-[4-Amino-5-(1,3-thiazol-2-yl)pyrrolo[2,3-d]pyrimidin-7-yl]-5-{[(3-{[2-(4-fluorophenyl)ethyl]amino}propyl)amino]methyl}cyclopentane-1,2-diol], at KMT9 [1], the Kd was in the range of 0.01 to 0.1 µM. For the same compound, the ΔTm at 500 µM at KMT9 [2] lay in the range of 15 to 20 °C. In addition, the IC50 on KMT9 [3] is 0.1 to 1 µM.

With `Nc1ncnc2c1ccn2[C@@H]1C[C@H](CN(CCCNCCc2ccc(F)cc2)c2c[nH]nc2Br)[C@@H](O)[C@H]1O` [Compound 603, (1R,2S,3R,5R)-3-{4-Aminopyrrolo[2,3-d]pyrimidin-7-yl}-5-{[(3-bromo-2H-pyrazol-4-yl)(3-{[2-(4-fluorophenyl)ethyl]amino}propyl)amino]methyl}cyclopentane-1,2-diol], the Kd at KMT9 [1] was not above 0.01 µM. Further, at KMT9 [2], the ΔTm at 500 µM fell in the range of 15 to 20 °C. Besides, on KMT9 [3], the IC50 is 0.1 to 1 µM.

As for `Nc1ncnc2c1c(-c1ccn(S(=O)(=O)c3ccccc3)n1)cn2[C@@H]1C[C@H](CNCCCNCCc2ccccc2)[C@@H](O)[C@H]1O` [Compound 604, (1R,2S,3R,5R)-3-(4-Amino-5-(1-(phenylsulfonyl)-1H-pyrazol-3-yl)-7H-pyrrolo[2,3-d]pyrimidin-7-yl)-5-(((3-(phenethylamino)propyl)amino)methyl)cyclopentane-1,2-diol], the Kd on KMT9 [1] was not above 0.01 µM. Also, the ΔTm at 500 µM at KMT9 [2] lay in the range of 15 to 20 °C. This compound also displayed an IC50 on KMT9 [3] of less than 0.1 µM.

Consider `Nc1ncnc2c1c(-c1nc(Cc3ccccc3)cs1)cn2[C@@H]1C[C@H](CNCCCNCCc2ccccc2)[C@@H](O)[C@H]1O` [Compound 605, (1R,2S,3R,5R)-3-(4-Amino-5-(4-benzylthiazol-2-yl)-7H-pyrrolo[2,3-d]pyrimidin-7-yl)-5-(((3-(phenethylamino)propyl)amino)methyl)cyclopentane-1,2-diol], for which, on KMT9 [1], the Kd was 0.01 to 0.1 µM. In addition, the ΔTm at 500 µM at KMT9 [2] lay in the range of 15 to 20 °C. Further, the IC50 against KMT9 [3] fell in the range of 0.1 to 1 µM.

With `CNc1ncnc2c1ccn2[C@@H]1C[C@H](CN(CCCN)c2cn[nH]c2Br)[C@@H](O)[C@H]1O` [Compound 606, (1S,2R,3R,5R)-3-{[(3-Aminopropyl)(3-bromo-2H-pyrazol-4-yl)amino]methyl}-5-[4-(methylamino)pyrrolo[2,3-d]pyrimidin-7-yl]cyclopentane-1,2-diol], the Kd at KMT9 [1] is more than 1 µM. Further, the ΔTm at 500 µM at KMT9 [2] is not above 10 °C. Besides, the IC50 against KMT9 [3] is more than 10 µM.
